Source: US20250171437A1 (Agios Pharmaceuticals,Inc., priority 2022, published 2025)

What follows are compounds tested against T1, human PAH with the R408W mutation (A375 R408W cells) (Homo sapiens, UniProt P00439, R408W) (assay: Cell Based Phenylalanine Flux Assay). Conditions: A375 R408W cells; 24 hrs with compound, then 20 μM sepiapterin and 800 μM 13C9,15N-Phenylalanine for 4 hours; 13C-Tyrosine by LC-MS; average where tested multiple times.
T1 construct: expressed in transfected cells
T1 sequence (P00439 1-452 R408W): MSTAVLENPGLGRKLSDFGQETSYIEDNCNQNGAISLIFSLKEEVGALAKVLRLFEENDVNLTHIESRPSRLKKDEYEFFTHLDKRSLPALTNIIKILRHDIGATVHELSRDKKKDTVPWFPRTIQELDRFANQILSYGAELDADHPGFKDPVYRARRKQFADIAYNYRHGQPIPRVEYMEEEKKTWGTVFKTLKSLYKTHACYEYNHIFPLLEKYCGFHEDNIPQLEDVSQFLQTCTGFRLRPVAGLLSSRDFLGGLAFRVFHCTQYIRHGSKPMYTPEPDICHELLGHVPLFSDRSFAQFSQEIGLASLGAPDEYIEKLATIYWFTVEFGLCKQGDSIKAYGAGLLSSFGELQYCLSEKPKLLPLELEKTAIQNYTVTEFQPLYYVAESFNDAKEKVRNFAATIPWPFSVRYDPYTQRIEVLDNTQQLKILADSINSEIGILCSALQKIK
How it was run: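 A375 cells stably expressing human PAH R408W treated 24 h at 37° C with a 10-point 2-fold dose curve in duplicate, 0.5% DMSO. Then 20 μM sepiapterin and 800 μM 13C9,15N-Phe added for 4 h; 13C-Tyr in media measured by LC-MS to give AC50.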

| AC50 | Structure (SMILES) |
| --- | --- |
| 1 to 5 µM | Cc1ccc2oc([C@H]3c4nc[nH]c4CCN3C(=O)c3oc(-c4ccccn4)nc3C(F)F)nc2c1 [Example 738, (R)-(4-(difluoromethyl)-2-(pyridin-2-yl)oxazol-5-yl)(4-(5-methylbenzo[d]oxazol-2-yl)-6,7-dihydro-1H-imidazo[4,5-c]pyridin-5(4H)-yl)methanone] |
| 1 to 5 µM | O=C(CCc1cncs1)N1CCc2[nH]cnc2[C@@H]1c1nc2cccc(F)c2o1 [Example 410, (R)-1-(4-(7-fluorobenzo[d]oxazol-2-yl)-6,7-dihydro-1H-imidazo[4,5-c]pyridin-5(4H)-yl)-3-(thiazol-5-yl)propan-1-one] |
| 1 to 5 µM | CC1CN(C(=O)c2ocnc2C(F)F)[C@@H](c2nc3cccc(F)c3o2)c2nc[nH]c21 (single isomer, unassigned) [Example 805] |
| ≤ 0.5 µM | O=C(c1ocnc1C(F)F)N1CCc2[nH]cnc2[C@@H]1c1nc2cccc(C(F)(F)F)c2o1 [Example 494, (R)-(4-(difluoromethyl)oxazol-5-yl)(4-(7-(trifluoromethyl)benzo[d]oxazol-2-yl)-6,7-dihydro-1H-imidazo[4,5-c]pyridin-5(4H)-yl)methanone] |
| 1 to 5 µM | Cn1nccc1C(=O)N1Cc2[nH]cnc2[C@H]1c1nc2ccccc2o1 [Example 924, (S)-(4-(benzo[d]oxazol-2-yl)-4,6-dihydropyrrolo[3,4-d]imidazol-5(1H)-yl)(1-methyl-1H-pyrazol-5-yl)methanone] |
| ≤ 0.5 µM | O=C(c1ocnc1C(F)F)N1CC2(CC2)c2[nH]cnc2[C@H]1c1nc2cccc(F)c2o1 [Example 911, (S)-(4-(difluoromethyl)oxazol-5-yl)(4′-(7-fluorobenzo[d]oxazol-2-yl)spiro[cyclopropane-1,7′-imidazo[4,5-c]pyridin]-5′(1′H,4′H,6′H)-yl)methanone] |
| 0.5 to 1 µM | Cc1c(F)ccc2oc([C@H]3c4nc[nH]c4CCN3C(=O)c3oc(C(C)(C)O)nc3C(F)F)nc12 [Example 720, (R)-(4-(difluoromethyl)-2-(2-hydroxypropan-2-yl)oxazol-5-yl)(4-(5-fluoro-4-methylbenzo[d]oxazol-2-yl)-6,7-dihydro-1H-imidazo[4,5-c]pyridin-5(4H)-yl)methanone] |
| ≤ 0.5 µM | CC(C)(O)c1nc(C(F)F)c(C(=O)N2CCc3[nH]cnc3[C@H]2c2nc3ccc(F)c(F)c3o2)o1 [Example 297, (S)-(4-(6,7-difluorobenzo[d]oxazol-2-yl)-6,7-dihydro-1H-imidazo[4,5-c]pyridin-5(4H)-yl)(4-(difluoromethyl)-2-(2-hydroxypropan-2-yl)oxazol-5-yl)methanone] |
| 0.5 to 1 µM | O=C(c1ocnc1CF)N1CCc2[nH]cnc2[C@H]1c1nc2cc(F)ccc2o1 [Example 179, (S)-(4-(5-fluorobenzo[d]oxazol-2-yl)-6,7-dihydro-1H-imidazo[4,5-c]pyridin-5(4H)-yl)(4-(fluoromethyl)oxazol-5-yl)methanone] |
| ≤ 0.5 µM | O=C(c1oc(-c2ccccn2)nc1C(F)F)N1CCc2[nH]cnc2[C@H]1c1nc2ccccc2o1 [Example 740, (S)-(4-(benzo[d]oxazol-2-yl)-6,7-dihydro-1H-imidazo[4,5-c]pyridin-5(4H)-yl)(4-(difluoromethyl)-2-(pyridin-2-yl)oxazol-5-yl)methanone] |
| ≤ 0.5 µM | CN(C)c1cn2ncc(C(=O)N3CCc4[nH]cnc4[C@H]3c3nc4cc(F)ccc4o3)c2cc1Cl [Example 207, (S)-(5-chloro-6-(dimethylamino)pyrazolo[1,5-a]pyridin-3-yl)(4-(5-fluorobenzo[d]oxazol-2-yl)-6,7-dihydro-1H-imidazo[4,5-c]pyridin-5(4H)-yl)methanone] |
| ≤ 0.5 µM | O=C(c1nnc(-c2cnn(C(F)F)c2)o1)N1CCc2[nH]cnc2[C@H]1c1nc2c(F)ccc(F)c2o1 [Example 801, (S)-(4-(4,7-difluorobenzo[d]oxazol-2-yl)-6,7-dihydro-1H-imidazo[4,5-c]pyridin-5(4H)-yl)(5-(1-(difluoromethyl)-1H-pyrazol-4-yl)-1,3,4-oxadiazol-2-yl)methanone] |
| ≤ 0.5 µM | Cc1ncoc1C(=O)N1CCc2[nH]cnc2[C@H]1c1nc2c(F)cccc2o1 [Example 599, (S)-(4-(4-fluorobenzo[d]oxazol-2-yl)-6,7-dihydro-1H-imidazo[4,5-c]pyridin-5(4H)-yl)(4-methyloxazol-5-yl)methanone] |
| ≤ 0.5 µM | O=C(CC1CC1)N1CCc2[nH]cnc2[C@H]1c1nc2ccc(Br)cc2o1 [Example 3, (S)-1-(4-(6-bromobenzo[d]oxazol-2-yl)-6,7-dihydro-1H-imidazo[4,5-c]pyridin-5(4H)-yl)-2-cyclopropylethanone] |
| 0.5 to 1 µM | CC(C)(O)c1nc(C(F)F)c(C(=O)N2CCc3[nH]cnc3[C@H]2c2nc3c(F)c(F)ccc3o2)o1 [Example 347, (S)-(4-(4,5-difluorobenzo[d]oxazol-2-yl)-6,7-dihydro-1H-imidazo[4,5-c]pyridin-5(4H)-yl)(4-(difluoromethyl)-2-(2-hydroxypropan-2-yl)oxazol-5-yl)methanone] |
| 0.5 to 1 µM | Cn1cnc(-c2nc(C(F)F)c(C(=O)N3CCc4[nH]cnc4[C@H]3c3nc4ccccc4o3)o2)c1 [Example 786, (S)-(4-(benzo[d]oxazol-2-yl)-6,7-dihydro-1H-imidazo[4,5-c]pyridin-5(4H)-yl)(4-(difluoromethyl)-2-(1-methyl-1H-imidazol-4-yl)oxazol-5-yl)methanone] |
| ≤ 0.5 µM | O=C(c1nnc(-c2ncccc2F)o1)N1CCc2[nH]cnc2[C@H]1c1nc2cccc(F)c2o1 [Example 868, (S)-(4-(7-fluorobenzo[d]oxazol-2-yl)-6,7-dihydro-1H-imidazo[4,5-c]pyridin-5(4H)-yl)(5-(3-fluoropyridin-2-yl)-1,3,4-oxadiazol-2-yl)methanone] |
| 1 to 5 µM | COc1ccc2oc([C@H]3c4nc[nH]c4CCN3C(=O)c3nnc(-c4cnn(C)c4)o3)nc2c1 [Example 554, (R)-(4-(5-methoxybenzo[d]oxazol-2-yl)-6,7-dihydro-1H-imidazo[4,5-c]pyridin-5(4H)-yl)(5-(1-methyl-1H-pyrazol-4-yl)-1,3,4-oxadiazol-2-yl)methanone] |
| 0.5 to 1 µM | Cn1ccc(-c2nnc(C(=O)N3CCc4[nH]cnc4[C@H]3c3nc4ccc(F)cc4o3)o2)n1 [Example 321, (S)-(4-(6-fluorobenzo[d]oxazol-2-yl)-6,7-dihydro-1H-imidazo[4,5-c]pyridin-5(4H)-yl)(5-(1-methyl-1H-pyrazol-3-yl)-1,3,4-oxadiazol-2-yl)methanone] |

Same assay, conditions: A375 cells expressing R408W PAH; 24 hrs with compound, then 20 μM sepiapterin and 800 μM 13C9,15N-Phenylalanine for 4 hours; 13C-Tyrosine by LC-MS; average where tested multiple times

| AC50 | Structure (SMILES) |
| --- | --- |
| ≥ 5 µM | COCc1nnc(C(=O)N2CCc3[nH]cnc3C2c2nc3cc(F)ccc3o2)o1 (stereo not shown) |
| 1 to 5 µM | O=C(c1cnn2cc(N3CCC(O)CC3)ccc12)N1CCc2[nH]cnc2C1c1nc2c(F)cc(F)cc2o1 (stereo not shown) |
| ≥ 5 µM | O=C(c1cnco1)N1CCc2[nH]cnc2C1c1nc2c(F)cccc2o1 (stereo not shown) |
| ≥ 5 µM | COCCNc1ccc2c(C(=O)N3CCc4[nH]cnc4C3c3nc4cc(F)ccc4o3)cnn2c1 (stereo not shown) |
| 1 to 5 µM | COc1ccc2oc(C3c4nc[nH]c4CCN3C(=O)c3cnc(C(C)(C)O)o3)nc2c1 (stereo not shown) |
| 1 to 5 µM | O=C(c1cnn2cc(N3CCC(O)CC3)ccc12)N1CCc2[nH]cnc2C1c1nc2ccc(F)c(F)c2o1 (stereo not shown) |
| 1 to 5 µM | Cn1nccc1C(=O)N1CCc2[nH]cnc2C1c1nc2cc(F)ccc2o1 (stereo not shown) |
| ≥ 5 µM | CC(C)(O)c1cc(C(=O)N2CCc3[nH]cnc3C2c2nc3ccc(F)cc3o2)no1 (stereo not shown) |

| Structure (SMILES) | AC50 |
| --- | --- |
| Cc1cccc2nc([C@H]3c4nc[nH]c4CCN3C(=O)c3cnn4cc(N5CCC(O)CC5)ccc34)oc12 (single isomer, unassigned) | ≥ 5 µM |
